From PubChem BioAssay (NCI)
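GI50 = concentration required for 50% inhibition of growth. At the TGI there is no net growth.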

Assays:
Experiment in all cases: NCI tumour cell line growth inhibition, 384-well format
786-0 renal = system: 786-0 renal
A498 renal = system: A498 renal
A549 NSCLC = system: A549 NSCLC
ACHN renal = system: ACHN renal
BT-549 breast = system: BT-549 breast
CAKI-1 renal = system: CAKI-1 renal
CCRF-CEM leukemia = system: CCRF-CEM leukemia
COLO 205 colon = system: COLO 205 colon
EKVX NSCLC = system: EKVX NSCLC
HCC-2998 colon = system: HCC-2998 colon
HCT-116 colon = system: HCT-116 colon
HCT-15 colon = system: HCT-15 colon
HL-60(TB) leukemia = system: HL-60(TB) leukemia
HOP-62 NSCLC = system: HOP-62 NSCLC
HOP-92 NSCLC = system: HOP-92 NSCLC
HS 578T breast = system: HS 578T breast
HT29 colon = system: HT29 colon
IGROV1 ovarian = system: IGROV1 ovarian
K-562 leukemia = system: K-562 leukemia
KM12 colon = system: KM12 colon
M14 melanoma = system: M14 melanoma
MALME-3M melanoma = system: MALME-3M melanoma
MCF7 breast = system: MCF7 breast
MOLT-4 leukemia = system: MOLT-4 leukemia
NCI-H460 NSCLC = system: NCI-H460 NSCLC
NCI/ADR-RES ovarian = system: NCI/ADR-RES ovarian
OVCAR-3 ovarian = system: OVCAR-3 ovarian
OVCAR-4 ovarian = system: OVCAR-4 ovarian
OVCAR-5 ovarian = system: OVCAR-5 ovarian
OVCAR-8 ovarian = system: OVCAR-8 ovarian
RXF 393 renal = system: RXF 393 renal
SF-268 CNS = system: SF-268 CNS
SF-295 CNS = system: SF-295 CNS
SF-539 CNS = system: SF-539 CNS
SK-MEL-2 melanoma = system: SK-MEL-2 melanoma
SK-MEL-28 melanoma = system: SK-MEL-28 melanoma
SK-OV-3 ovarian = system: SK-OV-3 ovarian
SN12C renal = system: SN12C renal
SNB-19 CNS = system: SNB-19 CNS
SNB-75 CNS = system: SNB-75 CNS
SW-620 colon = system: SW-620 colon
T-47D breast = system: T-47D breast
TK-10 renal = system: TK-10 renal
U251 glioblastoma = system: U251 glioblastoma
UACC-257 melanoma = system: UACC-257 melanoma
UACC-62 melanoma = system: UACC-62 melanoma
UO-31 renal = system: UO-31 renal

SMILES: O=C(/C=C/c1cccc(S(=O)(=O)Nc2ccccc2)c1)NO
- GI50 ([…]-0 renal): 898 nM
- TGI (786-0 renal): 2780 nM
- GI50 (A498 renal): 494 nM
- TGI (A498 renal): 1450 nM
- GI50 (A549 NSCLC): 422 nM
- TGI (A549 NSCLC): 1590 nM
- GI50 (ACHN renal): 493 nM
- TGI (ACHN renal): 1540 nM
- GI50 (BT-549 breast): 925 nM
- TGI (BT-549 breast): 2820 nM
- GI50 (CAKI-1 renal): 218 nM
- TGI (CAKI-1 renal): 885 nM
- GI50 (CCRF-CEM leukemia): 134 nM
- TGI (CCRF-CEM leukemia): 263 nM
- GI50 (COLO 205 colon): 330 nM
- TGI (COLO 205 colon): 791 nM
- GI50 (EKVX NSCLC): 1810 nM
- TGI (EKVX NSCLC): 8.53 µM
- GI50 (HCC-2998 colon): 490 nM
- TGI (HCC-2998 colon): 1220 nM
- GI50 (HCT-116 colon): 205 nM
- TGI (HCT-116 colon): 630 nM
- GI50 (HCT-15 colon): 579 nM
- TGI (HCT-15 colon): 2100 nM
- GI50 (HL-60(TB) leukemia): 223 nM
- TGI (HL-60(TB) leukemia): 373 nM
- GI50 (HOP-62 NSCLC): 498 nM
- TGI (HOP-62 NSCLC): 2330 nM
- GI50 (HOP-92 NSCLC): 343 nM
- TGI (HOP-92 NSCLC): 1070 nM
- GI50 (HS 578T breast): 474 nM
- TGI (HS 578T breast): 1600 nM
- GI50 (HT29 colon): 282 nM
- TGI (HT29 colon): 918 nM
- GI50 (IGROV1 ovarian): 271 nM
- TGI (IGROV1 ovarian): 781 nM
- GI50 (K-562 leukemia): 188 nM
- TGI (K-562 leukemia): 394 nM
- GI50 (KM12 colon): 128 nM
- TGI (KM12 colon): 1720 nM
- GI50 (M14 melanoma): 537 nM
- TGI (M14 melanoma): 2140 nM
- GI50 (MALME-3M melanoma): 184 nM
- TGI (MALME-3M melanoma): 450 nM
- GI50 (MCF7 breast): 264 nM
- TGI (MCF7 breast): 1300 nM
- GI50 (MOLT-4 leukemia): 137 nM
- TGI (MOLT-4 leukemia): 267 nM
- GI50 (NCI-H460 NSCLC): 350 nM
- TGI (NCI-H460 NSCLC): 1500 nM
- GI50 (NCI/ADR-RES ovarian): 210 nM
- TGI (NCI/ADR-RES ovarian): 551 nM
- GI50 (OVCAR-3 ovarian): 299 nM
- TGI (OVCAR-3 ovarian): 1280 nM
- GI50 (OVCAR-4 ovarian): 1880 nM
- TGI (OVCAR-4 ovarian): 5.86 µM
- GI50 (OVCAR-5 ovarian): 369 nM
- TGI (OVCAR-5 ovarian): 1480 nM
- GI50 (OVCAR-8 ovarian): 225 nM
- TGI (OVCAR-8 ovarian): 985 nM
- GI50 (RXF 393 renal): 87.7 nM
- TGI (RXF 393 renal): 365 nM
- GI50 (SF-268 CNS): 517 nM
- TGI (SF-268 CNS): 1660 nM
- GI50 (SF-295 CNS): 607 nM
- TGI (SF-295 CNS): 1910 nM
- GI50 (SF-539 CNS): 616 nM
- TGI (SF-539 CNS): 2650 nM
- GI50 (SK-MEL-2 melanoma): 265 nM
- TGI (SK-MEL-2 melanoma): 558 nM
- GI50 (SK-MEL-28 melanoma): 565 nM
- TGI (SK-MEL-28 melanoma): 1890 nM
- GI50 (SK-OV-3 ovarian): 490 nM
- TGI (SK-OV-3 ovarian): 1650 nM
- GI50 (SN12C renal): 853 nM
- TGI (SN12C renal): 2250 nM
- GI50 (SNB-19 CNS): 853 nM
- TGI (SNB-19 CNS): 2240 nM
- GI50 (SNB-75 CNS): 258 nM
- TGI (SNB-75 CNS): 796 nM
- GI50 (SW-620 colon): 188 nM
- TGI (SW-620 colon): 436 nM
- GI50 (T-47D breast): 208 nM
- TGI (T-47D breast): 547 nM
- GI50 (TK-10 renal): 445 nM
- TGI (TK-10 renal): 2000 nM
- GI50 (U251 glioblastoma): 430 nM
- TGI (U251 glioblastoma): 1340 nM
- GI50 (UACC-257 melanoma): 289 nM
- TGI (UACC-257 melanoma): 1030 nM
- GI50 (UACC-62 melanoma): 217 nM
- TGI (UACC-62 melanoma): 597 nM
- GI50 (UO-31 renal): 1020 nM
- TGI (UO-31 renal): 3.17 µM
